Assay results from patent US20260345568A1, “INHIBITING MONOACYLGLYCEROL LIPASE (MAGL)” (PSY THERAPEUTICS, INC., priority 2023, published 2026).
pIC50: −log10 of the molar value.

What follows are molecules tested against T1, human MAGL (Homo sapiens, UniProt Q99685) (assay: MAGL inhibition potency, 4-nitrophenyl acetate (4NPA) hydrolysis, absorbance 405 nm (Example A)). Settings: Method 2: Cayman Chemical MAGL enzyme, 10 nM; 4NPA substrate; read-out: Potency.
T1 construct: recombinant MAGL enzyme (aa 2-303 RBC, internal preparation)
T1 sequence (Q99685 2-303): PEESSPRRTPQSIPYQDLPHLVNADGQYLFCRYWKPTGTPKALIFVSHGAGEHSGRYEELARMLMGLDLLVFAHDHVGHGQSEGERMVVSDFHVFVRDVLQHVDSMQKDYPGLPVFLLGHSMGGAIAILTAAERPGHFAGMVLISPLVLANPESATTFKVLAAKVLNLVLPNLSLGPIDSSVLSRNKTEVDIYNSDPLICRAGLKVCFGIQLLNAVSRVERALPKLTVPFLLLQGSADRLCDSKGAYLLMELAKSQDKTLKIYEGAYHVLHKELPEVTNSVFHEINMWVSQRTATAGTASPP
Type: biochemical
Description: The potency of certain compounds for inhibiting MAGL were obtained using the following assays.
The monoacylglycerol lipase inhibitor screening assay kit from Cayman Chemical was used to measure the MAGL potency for the compounds in Tables A-1, A-2, A-3.
Cayman's Monoacylglycerol Lipase Inhibitor Screening Assay provides a method for screening human MAGL inhibitors. MAGL hydrolyzes 4-nitrophenylacetate resulting in a yellow product, 4-nitrophenol, with an absorbance of 405-412 nm.
MAGL Inhibition was measured by the following assay. Monoacylglycerol Lipase (MAGL) inhibition was measured using recombinant MAGL enzyme (aa 2-303 RBC, internal preparation) and the substrate 4-Nitrophenyl acetate (4NPA) (Sigma-Aldrich, N8130). Hydrolysis of the substrate in the presence of the enzyme was measured by absorbance at 405 nm. 10 μL of assay buffer (10 mM Tris pH 7.5, 1 mM EDTA, 0.9% DMSO) was added to a black 384-well non-binding plate with clear bottom (Greiner, 781906) for each reaction. Compounds were dispensed using an acoustic liquid handler (Echo, Beckman) at 45 nL (0.1% DMSO). Test compounds and control for MAGL inhibitor JZL-184 (Caymen Chemical, 13158) were tested in 10-concentration IC50 mode with 3-fold serial dilution at a starting concentration of […]. DMSO control wells were included for reference. A 10.8 nM (1.8×) MAGL mix in assay buffer was prepared, with 25 μL added to each reaction well, for a final assay concentration of […]. No enzyme wells received 25 μL of buffer. Plate was incubated at room temperature for 30 minutes. 35 mM solution of 4NPA in methanol was prepared daily A 4.5×4NPA substrate solution was prepared in assay buffer and 10 μL was added to each reaction well, for a final assay concentration of 0.25 mM. Plate was spun for 1 minute at 1000 rpm before measuring absorbance using a CLARIOstar plate reader (BMG Labtech). A kinetic reading at 405 nm was done every minute for 30 minutes. Data was analyzed using the linear slope of the reaction progress curve and the average of the no-enzyme wells (background) was subtracted from the data. The background-subtracted slope data was converted to % activity using the average of wells with enzyme and DMSO vehicle. IC50s were calculated using GraphPad software (Sigmoidal dose response, variable slope equation).
Table 8 provides potency measurements of MAGL inhibition measured using the Potency Assay of Example A above, with the following modifications described in Table C.
The number after each letter for potency measurement value indicates the Method from Table C that was used to obtain that measurement value (e.g. “A(1)” indicates an IC50 measurement of <50 nM obtained from the Method 1 of Example A in Table C).
With `Cc1cc(C2CC3(C2)CN([C@H]2CCOc4ccccc42)C3)n(-c2ccccc2C)n1` [Compound C4, reference compound] the pIC50 was < 5.00.

Same assay, conditions: Method 12: Reaction Biology MAGL enzyme, 15 nM; 4NPA substrate; read-out: MAGL Potency (Detection Method)
`O=C(c1cc(O)ccc1F)N1CC2(CC(n3ncc(C(F)(F)F)c3-c3cccnc3)C2)C1` [Compound 1, (2-fluoro-5-hydroxyphenyl){6-[5-(3-pyridyl)-4-(trifluoromethyl)-1-pyrazolyl]-2-aza-2-spiro[3.3]heptyl}methanone] gave a pIC50 of 6.30 to 6.82. For `O=C(c1cc(O)ccc1F)N1CC2(CC(n3cc(C(F)(F)F)c(-c4cccnc4)n3)C2)C1` [Compound 2, (2-fluoro-5-hydroxyphenyl){6-[3-(3-pyridyl)-4-(trifluoromethyl)-1-pyrazolyl]-2-aza-2-spiro[3.3]heptyl}methanone], the pIC50 was > 7.30. `O=C(c1cc(O)ccc1F)N1CC2(CC(n3nc(C(F)(F)F)cc3-c3cccnc3)C2)C1` [Compound 3, (2-fluoro-5-hydroxyphenyl){6-[5-(3-pyridyl)-3-(trifluoromethyl)-1-pyrazolyl]-2-aza-2-spiro[3.3]heptyl}methanone] was tested, and the pIC50 was 6.82 to 7.30. `O=C(c1cc(O)ccc1F)N1CC2(CC(n3nc(-c4cccnc4)cc3C(F)(F)F)C2)C1` [Compound 4, (2-fluoro-5-hydroxyphenyl){6-[3-(3-pyridyl)-5-(trifluoromethyl)-1-pyrazolyl]-2-aza-2-spiro[3.3]heptyl}methanone] was tested, and the pIC50 was > 7.30. For `O=C(c1cc(O)ccc1F)N1CC2(CC(n3nc(-c4ccccn4)cc3C(F)(F)F)C2)C1` [Compound 6, (2-fluoro-5-hydroxyphenyl){6-[3-(2-pyridyl)-5-(trifluoromethyl)-1-pyrazolyl]-2-aza-2-spiro[3.3]heptyl}methanone], the pIC50 was 6.30 to 6.82. Molecule `O=C(c1cc(O)ccc1F)N1CC2(CC(n3nc(C(F)(F)F)cc3-c3ccncc3)C2)C1` [Compound 7, (2-fluoro-5-hydroxyphenyl){6-[5-(4-pyridyl)-3-(trifluoromethyl)-1-pyrazolyl]-2-aza-2-spiro[3.3]heptyl}methanone] has a pIC50 of 6.30 to 6.82. `O=C(c1cc(O)ccc1F)N1CC2(CC(n3nc(-c4ccncc4)cc3C(F)(F)F)C2)C1` [Compound 8, (2-fluoro-5-hydroxyphenyl){6-[3-(4-pyridyl)-5-(trifluoromethyl)-1-pyrazolyl]-2-aza-2-spiro[3.3]heptyl}methanone] was tested, and the pIC50 was > 7.30. With `O=C(c1cc(O)ccc1F)N1CC2(CC(n3nc(C(F)(F)F)cc3-c3ccc(=O)[nH]c3)C2)C1` [Compound 9, 5-(1-(2-(2-fluoro-5-hydroxybenzoyl)-2-azaspiro [3.3]heptan-6-yl)-3-(trifluoromethyl)-1H-pyrazol-5-yl) pyridin-2(1H)-one] the pIC50 was 6.30 to 6.82. For `O=C(c1cc(O)ccc1F)N1CC2(CC(n3nc(C(F)(F)F)cc3-c3ccc[nH]c3=O)C2)C1` [Compound 11, 3-(1-(2-(2-fluoro-5-hydroxybenzoyl)-2-azaspiro [3.3]heptan-6-yl)-3-(trifluoromethyl)-1H-pyrazol-5-yl) pyridin-2(1H)-one], the pIC50 was 6.30 to 6.82. With `O=C(c1cc(O)ccc1F)N1CC2(CC(n3nc(C(F)(F)F)cc3-c3cncc(F)c3)C2)C1` [Compound 13] the pIC50 was 6.30 to 6.82. `O=C(c1cc(O)ccc1F)N1CC2(CC(n3nc(-c4cncc(F)c4)cc3C(F)(F)F)C2)C1` [Compound 14, (2-fluoro-5-hydroxyphenyl){6-[3-(5-fluoro-3-pyridyl)-5-(trifluoromethyl)-1-pyrazolyl]-2-aza-2-spiro[3.3]heptyl}methanone] was tested, and the pIC50 was 6.82 to 7.30. With `COc1ncccc1-c1cc(C(F)(F)F)nn1C1CC2(C1)CN(C(=O)c1cc(O)ccc1F)C2` [Compound 16] the pIC50 was 6.82 to 7.30. In the case of `COc1ccc(-c2cc(C(F)(F)F)nn2C2CC3(C2)CN(C(=O)c2cc(O)ccc2F)C3)cn1` [Compound 18, (2-fluoro-5-hydroxyphenyl) (6-(5-(6-methoxypyridin-3-yl)-3-(trifluoromethyl)-1H-pyrazol-1-yl)-2-azaspiro [3.3]heptan-2-yl) methanone], the pIC50 was 6.30 to 6.82. In the case of `COc1ncccc1-c1c(C(F)(F)F)cnn1C1CC2(C1)CN(C(=O)c1cc(O)ccc1F)C2` [Compound 19, (2-fluoro-5-hydroxyphenyl){6-[5-(2-methoxy-3-pyridyl)-4-(trifluoromethyl)-1-pyrazolyl]-2-aza-2-spiro[3.3]heptyl}methanone], the pIC50 was > 7.30. With `COc1ncccc1-c1nn(C2CC3(C2)CN(C(=O)c2cc(O)ccc2F)C3)cc1C(F)(F)F` [Compound 20] the pIC50 was 6.30 to 6.82. In the case of `O=C(c1cc(O)ccc1F)N1CC2(CC(n3ncc(C(F)(F)F)c3-c3cccnc3F)C2)C1` [Compound 21], the pIC50 was 6.30 to 6.82. With `O=C(c1cc(O)ccc1F)N1CC2(CC(n3cc(C(F)(F)F)c(-c4cccnc4F)n3)C2)C1` [Compound 22, (2-fluoro-5-hydroxyphenyl){6-[3-(2-fluoro-3-pyridyl)-4-(trifluoromethyl)-1-pyrazolyl]-2-aza-2-spiro[3.3]heptyl}methanone] the pIC50 was > 7.30. `COc1ccc(-c2c(C(F)(F)F)cnn2C2CC3(C2)CN(C(=O)c2cc(O)ccc2F)C3)cn1` [Compound 27] was tested, and the pIC50 was 6.82 to 7.30. With `COc1ccc(-c2nn(C3CC4(C3)CN(C(=O)c3cc(O)ccc3F)C4)cc2C(F)(F)F)cn1` [Compound 28, (2-fluoro-5-hydroxyphenyl){6-[3-(6-methoxy-3-pyridyl)-4-(trifluoromethyl)-1-pyrazolyl]-2-aza-2-spiro[3.3]heptyl}methanone] the pIC50 was > 7.30. Work on `O=C(c1cc(O)ccc1F)N1CC2(CC(n3ncc(C(F)(F)F)c3-c3ccc[nH]c3=O)C2)C1` [Compound 29, 3-(1-{2-(2-fluoro-5-hydroxybenzoyl)-2-aza-6-spiro[3.3]heptyl}-4-(trifluoromethyl)-5-pyrazolyl)-2(1H)-pyridinone] yielded a pIC50 of 5.29 to 6.00. In the case of `O=C(c1cc(O)ccc1F)N1CC2(CC(n3cc(C(F)(F)F)c(-c4ccc[nH]c4=O)n3)C2)C1` [Compound 30, 3-(1-{2-(2-fluoro-5-hydroxybenzoyl)-2-aza-6-spiro[3.3]heptyl}-4-(trifluoromethyl)-3-pyrazolyl)-2(1H)-pyridinone], the pIC50 was 6.82 to 7.30. In the case of `O=C(c1cc(O)ccc1F)N1CC2(CC(n3ncc(C(F)(F)F)c3-c3ccc(=O)[nH]c3)C2)C1` [Compound 31, 5-(1-{2-(2-fluoro-5-hydroxybenzoyl)-2-aza-6-spiro[3.3]heptyl}-4-(trifluoromethyl)-5-pyrazolyl)-2(1H)-pyridinone], the pIC50 was 5.29 to 6.00. In the case of `O=C(c1cc(O)ccc1F)N1CC2(CC(n3cc(C(F)(F)F)c(-c4ccc(=O)[nH]c4)n3)C2)C1` [Compound 32], the pIC50 was 6.82 to 7.30. With `O=C(c1ccc(F)cc1OC1CC1)N1CC2(CC(N3C=C(c4ccccc4F)CC3=O)C2)C1` [Compound 33, 1-{2-(2-cyclopropoxy-4-fluorobenzoyl)-2-aza-6-spiro[3.3]heptyl}-3-(o-fluorophenyl)-2-pyrrolin-5-one] the pIC50 was 5.29 to 6.00. Work on `O=C1CCC(c2c(C(F)(F)F)cnn2C2CC3(C2)CN(C(=O)c2cc(O)ccc2F)C3)CN1` (centres unmarked) [Compound 41, 5-(1-{2-(2-fluoro-5-hydroxybenzoyl)-2-aza-6-spiro[3.3]heptyl}-4-(trifluoromethyl)-5-pyrazolyl)-2-piperidinone] yielded a pIC50 of 6.30 to 6.82.
